Data on 47 molecules can be found in PubChem BioAssay (NCI).

The experiment has as its system MDA-MB-468 breast. The experiment is described as follows: growth of human tumour cells (NCI), 48 h.

“And” between values parts separate entries of the source, which are not always exact repeats. Identical values can stand only once.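 Method: 48-hour compound exposure of cells in 96-well plates, five concentrations, linear interpolation of endpoints. The concentration for 50% growth inhibition is given as GI50. TGI: concentration producing complete growth inhibition.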

Turning to `CCCCCC(=O)Oc1ccc(/C(=C(\C)c2ccc(OC)cc2)c2ccc(OCCN3CCCCC3)cc2)cc1`, the GI50 was 4.02 µM and the TGI was 15.8 µM.

Regarding `CC(=O)O[C@H]1C(=O)[C@@]2(C)[C@H]([C@H](OC(=O)c3ccccc3)[C@]3([O-])C[C@H](OC(=O)[C@H]([O-])[C@@H](NC(=O)c4ccccc4)c4ccccc4)C(C)=C1C3(C)C)[C@]1(OC(C)=O)CO[C@@H]1C[C@@H]2[O-].[Fe+3]`, the GI50 is 0.0351 µM and 0.0363 µM.

As to `COc1ccc2c(c1)C=CC(C#N)N2C(=O)c1ccccc1` (stereo not drawn), the GI50 is < 0.01 µM and the TGI is > 100 µM.

For the molecule `COc1ccc(NC2=C(Br)C(=O)C(C)=C(C)C2=O)cc1`, the GI50 was 1.56 µM and the TGI was 3.16 µM.

Consider `C=C(C)[C@@H]1CC[C@@]2(C(=O)O)CC[C@]3(C)C(CCC4[C@@]5(C)CCC(OS(=O)(=O)c6ccccc6)C(C)(C)C5CC[C@]43C)C12` (stereo partly drawn), for which the GI50 is 2.76 µM and the TGI came out at 22.6 µM.

With `Cc1sc(C)c(-c2ccc(CO)o2)c1-c1ccc(CO)o1`, the GI50 was 0.0178 µM and the TGI is 0.0501 µM.

`Oc1ccc(Cc2ccccc2)c2cccnc12`: the GI50 is 1.92 µM and the TGI amounted to 5.51 µM.

Take `CCN(Cc1c(F)cccc1F)c1ccc(CO)c(Cl)c1`: the GI50 was 0.0148 µM and the TGI was 0.033 µM.

Turning to `Cc1noc(C)c1-c1ccc2[nH]c(=O)n3c2c1OC[C@@H]3c1ccccn1`, the GI50 is 0.719 µM and the TGI was > 91.3 µM.

Regarding `CNc1nc(NC2CCCC2)nc(Sc2ccc(OC)cc2)n1`, the GI50 is > 10 µM and the TGI is > 10 µM.

For the molecule `CC(C)(C)c1nc2c(o1)C(=Nc1ccc(F)cc1)c1ccccc1C2=O`, the GI50 was 5.84 µM and the TGI is > 100 µM.

`CCCCCCNc1nc(NCCCCCC)c2[nH]c(NCCCCCC)nc2n1`: the GI50 was 1.17 µM and the TGI came to 5.46 µM.

Turning to `CCn1c(-c2nonc2N)nc2ccc(F)cc21`, the GI50 was > 25 µM and the TGI was > 25 µM.

`CC1=C(C)C(=O)O[C@@H]([C@](C)(O)[C@]2(O)CC[C@@]3(O)[C@@H]4C[C@H]5O[C@]56CC=CC(=O)[C@]6(C)[C@H]4CC[C@]23C)C1`: the GI50 was 0.119 µM and the TGI came out at 0.725 µM.

For `O=C1c2c(c3c4ccc(Br)cc4oc3c3[nH]c4ccccc4c23)C(=O)N1O`, the GI50 was 2.38 µM and the TGI amounted to 8.36 µM.

On to `CCNCCOc1ccc(/C(=C(/CC)c2ccc(Cl)cc2)c2ccc(OCCCN(C)C)cc2)cc1`, for which the GI50 was 1.52 µM and the TGI is 5.35 µM.

Take `FC(F)(F)c1ccc2c(Nc3cccc(C4CC(c5ccccc5)=NN4c4ccc(Cl)cc4)c3)ccnc2c1` (stereo not drawn): the GI50 was 3.02 µM and the TGI was 16.6 µM.

Take `CC(=O)n1c(-c2ccc(Cl)cc2)nc2c(c1=O)C(c1ccc(Cl)cc1)c1sc3c(Cl)cccc3c1O2` (stereo not drawn): the GI50 is 0.225 µM and the TGI was found to be 0.56 µM.

For `Nc1nc(Nc2ccc(OCc3cccc(F)c3)cc2)c2c(n1)[nH]c1ccc(O)cc12`, the GI50 is 1.98 µM and the TGI came out at 5.36 µM.

Consider `COCC(=O)OC1CCn2c1nc1c2C(=O)C(C)=C(NC(C)=O)C1=O` (stereo not drawn), for which the GI50 is 0.27 µM and the TGI was 0.894 µM.

As to `O=c1cc(-c2ccccc2F)[nH]c2cc3c(cc12)OCO3`, the GI50 is 6.39 µM and the TGI was > 100 µM.

`CC(=O)Nc1cc(F)cc(-c2ccc3[nH]cc(-c4ccccc4)c3n2)c1`: the GI50 was 2.09 µM and the TGI was 6.4 µM.

With `CNC(=O)c1ccc(-c2cnc3ncc(Cc4ccc5ncccc5c4)n3n2)cc1F`, the GI50 is 92.3 µM and the TGI is > 100 µM.

As to `CCCSc1cc(Cl)nc(N)n1`, the GI50 is 85.8 µM and the TGI was > 100 µM.

Take `Cc1ccc(-c2nc(C(Cl)Cl)n3nc(-c4ccccc4)cc3n2)cc1`: the GI50 is 0.239 µM and the TGI was 0.612 µM.

With `C=CC(=O)Nc1cccc(Nc2nc(Nc3ccc(OCCOC)cc3)ncc2F)c1`, the GI50 is 0.976 µM and the TGI is 3.89 µM.

On to `CC(C)(C)OC(=O)c1ccc(NCc2cc(O)ccc2O)cc1`, for which the GI50 is 1.51 µM and the TGI was found to be 3.45 µM.

Regarding `CNC(=O)c1cc(Oc2ccc(NC(=O)Nc3ccc(Cl)c(OC(F)(F)F)c3)c(F)c2)ccn1`, the GI50 was 1.02 µM and the TGI came out at 4.77 µM.

Regarding `CCN(CCO)CCNc1ccc(C)c2sc3cc(Cl)ccc3c(=O)c12`, the GI50 is 1.29 µM and the TGI came out at 2.78 µM.

In the case of `NCCN1CCN(c2nccc(-c3ccc4ccccc4c3)n2)CC1`, the GI50 was 1.77 µM and the TGI was 3.42 µM.

Turning to `COc1ccc(/C=N/Nc2nc3ccccc3c(=O)n2-c2ccccc2)c(OCc2ccccc2)c1`, the GI50 is > 100 µM and the TGI was > 100 µM.

As for `O=C(N/N=C/c1ccc(Cl)cc1Cl)c1ccccc1Nc1cccc(C(F)(F)F)c1`, the GI50 was 2.88 µM and the TGI was found to be 12 µM.

As for `CNC(=O)c1cn(C[C@H](F)CCc2ccc(NC(=O)Cc3cc(OC4CC(F)(F)C4)cc(C)n3)nn2)nn1`, the GI50 was > 100 µM and the TGI was > 100 µM.

`COc1cc(-c2cn(C)c(=O)c(C)c2C)cc(OC)c1CN1CC[C@H](N2CCN(c3ccc(N[C@H]4CCC(=O)NC4=O)cc3F)CC2)C(F)(F)C1`: the GI50 was 7.26 µM and the TGI stood at 22.3 µM.

`CN(C)CCCNc1c2ccc(Cl)cc2nc2c1oc1ccccc12`: the GI50 was 3.32 µM and the TGI was found to be 14 µM.

As for `C=C1C(=O)O[C@H]2[C@H]1CC/C(COC(=O)c1cc3cc(OC)ccc3[nH]1)=C\CC[C@@]1(C)O[C@@H]21`, the GI50 was 1.13 µM and the TGI was determined as 2.85 µM.

Regarding `O=C(Nc1cc(-c2ccccc2)[nH]n1)c1ccc(Cl)cc1`, the GI50 is > 100 µM and the TGI was > 100 µM.

For the molecule `COc1ccc(/C=N/NC(=O)c2[nH]c3ccc(Br)cc3c2-c2ccccc2)s1`, the GI50 was 0.0586 µM and the TGI was determined as 3.78 µM.

For the molecule `CN(C)c1nc(-c2cccs2)n2nc(-c3ccc(Cl)cc3)cc2n1`, the GI50 is 3.1 µM and the TGI was > 100 µM.

`CCOC(=O)[C@@H](C)C[C@H](Cc1ccccc1)NC(=O)c1csc([C@@H](C[C@H](C(C)C)N(C)C(=O)[C@@H](NC(=O)[C@H]2CCCCN2C)C(C)(C)C)OC(C)=O)n1`: the GI50 was < 0.00167 µM and the TGI was 0.0752 µM.

For `Cc1ncc(NC(=O)c2ccc(CN3CCN(C)CC3)c(C(F)(F)F)c2)cc1Nc1nccc(-c2cccnc2)n1`, the GI50 is 14.6 µM and the TGI is 29.4 µM.

Turning to `CCCNCc1cc(C)cc2c1nc(N1CCNCC1)n2Cc1cc(C)c(F)c(C)c1`, the GI50 was 1.88 µM and the TGI was 3.71 µM.

Turning to `CCCS(=O)(=O)c1nc(NC2CC2)cc(-c2ccc3c(ccn3C3CC(C)(C)NC(C)(C)C3)c2)n1`, the GI50 is 1.75 µM and the TGI amounted to 3.61 µM.

On to `O=P(O)(O)C(O)(Cn1ccnc1)P(=O)(O)O`, for which the GI50 was > 87.3 µM and the TGI is > 100 µM.

`C=CCOc1c(Br)cc(Br)cc1Br`: the GI50 was 26.4 µM and the TGI was > 100 µM.

Regarding `CN1CCN(Cc2ccc(NC(=O)c3ccc(C(C)(C)C)c(C#Cc4cnc5cccnn45)c3)cc2C(F)(F)F)CC1`, the GI50 is 1.98 µM and the TGI was 3.77 µM.

As for `CS(=O)(=O)Nc1ccc(-c2ccc3c(NC(=O)C4CC4)n[nH]c3c2)cc1`, the GI50 is 7.2 µM and the TGI is > 23.7 µM.
